Publication PMC9030254, “Target Hopping from Protein Kinases to PXR: Identification of Small-Molecule Protein Kinase Inhibitors as Selective Modulators of Pregnane X Receptor from TüKIC Library” (Cells, 2022)

How the values were obtained:
Experiment in all cases: Kinase profiling
Format in all cases: biochemical
CDK7/CycH/MAT1 = molecular target: T1, CDK7/CycH/MAT1 (Homo sapiens, UniProt P50613)
T1 construct: purchased ProQinase (Freiburg, Germany)
Description: (§1) The analysis was performed by ProQinase (Freiburg, Germany).

CDK2/CycD1 = molecular target: T2, CDK2/CycD1 (Homo sapiens, UniProt P24941)
T2 construct: purchased ProQinase (Freiburg, Germany)
Description: as §1

JNK2 = molecular target: T3, JNK2 (Homo sapiens, UniProt P45984)
T3 construct: purchased ProQinase (Freiburg, Germany)
Description: as §1

NEK3 = molecular target: T4, NEK3 (Homo sapiens, UniProt P51956)
T4 construct: purchased ProQinase (Freiburg, Germany)
T4 sequence (P51956 1-506): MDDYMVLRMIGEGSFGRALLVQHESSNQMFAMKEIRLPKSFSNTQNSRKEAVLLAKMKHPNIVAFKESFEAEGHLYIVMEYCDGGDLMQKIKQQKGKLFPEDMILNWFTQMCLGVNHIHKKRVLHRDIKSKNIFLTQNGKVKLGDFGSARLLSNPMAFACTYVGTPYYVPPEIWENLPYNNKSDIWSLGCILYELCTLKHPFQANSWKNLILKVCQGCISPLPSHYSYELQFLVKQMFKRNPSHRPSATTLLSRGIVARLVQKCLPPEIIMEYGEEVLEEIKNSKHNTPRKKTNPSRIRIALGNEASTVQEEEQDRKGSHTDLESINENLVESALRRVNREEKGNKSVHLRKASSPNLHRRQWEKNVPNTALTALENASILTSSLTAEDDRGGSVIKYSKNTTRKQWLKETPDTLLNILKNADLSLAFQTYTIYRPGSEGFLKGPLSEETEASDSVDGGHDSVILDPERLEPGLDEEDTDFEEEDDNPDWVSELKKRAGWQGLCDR
Description: as §1

CK1delta = molecular target: T5, CK1delta (Homo sapiens, UniProt P48730)
T5 construct: purchased ProQinase (Freiburg, Germany)
Description: as §1

PHKG2 = molecular target: T6, PHKG2 (Homo sapiens, UniProt P15735)
T6 construct: purchased ProQinase (Freiburg, Germany)
T6 sequence (P15735 1-406): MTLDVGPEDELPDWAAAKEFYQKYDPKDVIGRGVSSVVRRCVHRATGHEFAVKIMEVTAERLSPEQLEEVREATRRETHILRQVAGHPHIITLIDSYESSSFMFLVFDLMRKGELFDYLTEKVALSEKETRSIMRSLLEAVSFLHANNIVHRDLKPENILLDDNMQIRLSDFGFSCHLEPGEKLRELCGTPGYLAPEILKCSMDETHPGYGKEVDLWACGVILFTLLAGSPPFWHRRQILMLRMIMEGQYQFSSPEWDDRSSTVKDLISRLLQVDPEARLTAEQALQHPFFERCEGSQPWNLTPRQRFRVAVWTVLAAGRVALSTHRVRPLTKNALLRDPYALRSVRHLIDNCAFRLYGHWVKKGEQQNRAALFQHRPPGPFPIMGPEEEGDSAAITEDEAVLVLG
Description: as §1

CDK20/CycH = molecular target: T7, CDK20/CycH (Homo sapiens, UniProt Q8IZL9)
T7 construct: purchased ProQinase (Freiburg, Germany)
Description: as §1

SNARK = molecular target: T8, SNARK (Homo sapiens, UniProt Q9H093)
T8 construct: purchased ProQinase (Freiburg, Germany)
T8 sequence (Q9H093 1-628): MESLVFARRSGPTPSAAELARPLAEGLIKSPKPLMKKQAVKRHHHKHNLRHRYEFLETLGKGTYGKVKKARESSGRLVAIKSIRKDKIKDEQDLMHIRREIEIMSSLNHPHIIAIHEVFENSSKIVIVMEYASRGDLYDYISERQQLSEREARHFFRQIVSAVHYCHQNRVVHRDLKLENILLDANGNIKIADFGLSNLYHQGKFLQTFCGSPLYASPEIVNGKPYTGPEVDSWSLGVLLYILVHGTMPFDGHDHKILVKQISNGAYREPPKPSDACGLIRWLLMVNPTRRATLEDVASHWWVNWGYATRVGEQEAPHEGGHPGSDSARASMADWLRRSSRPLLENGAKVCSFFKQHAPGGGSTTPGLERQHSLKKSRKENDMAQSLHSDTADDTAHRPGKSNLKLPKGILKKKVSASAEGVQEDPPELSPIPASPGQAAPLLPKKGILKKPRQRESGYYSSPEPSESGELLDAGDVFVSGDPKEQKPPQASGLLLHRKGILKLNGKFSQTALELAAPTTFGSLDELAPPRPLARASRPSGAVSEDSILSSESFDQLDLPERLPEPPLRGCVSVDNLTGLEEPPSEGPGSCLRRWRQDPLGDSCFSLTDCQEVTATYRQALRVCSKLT
Description: as §1

TEC = molecular target: T9, TEC (Homo sapiens, UniProt P42680)
T9 construct: purchased ProQinase (Freiburg, Germany)
T9 sequence (P42680 1-631): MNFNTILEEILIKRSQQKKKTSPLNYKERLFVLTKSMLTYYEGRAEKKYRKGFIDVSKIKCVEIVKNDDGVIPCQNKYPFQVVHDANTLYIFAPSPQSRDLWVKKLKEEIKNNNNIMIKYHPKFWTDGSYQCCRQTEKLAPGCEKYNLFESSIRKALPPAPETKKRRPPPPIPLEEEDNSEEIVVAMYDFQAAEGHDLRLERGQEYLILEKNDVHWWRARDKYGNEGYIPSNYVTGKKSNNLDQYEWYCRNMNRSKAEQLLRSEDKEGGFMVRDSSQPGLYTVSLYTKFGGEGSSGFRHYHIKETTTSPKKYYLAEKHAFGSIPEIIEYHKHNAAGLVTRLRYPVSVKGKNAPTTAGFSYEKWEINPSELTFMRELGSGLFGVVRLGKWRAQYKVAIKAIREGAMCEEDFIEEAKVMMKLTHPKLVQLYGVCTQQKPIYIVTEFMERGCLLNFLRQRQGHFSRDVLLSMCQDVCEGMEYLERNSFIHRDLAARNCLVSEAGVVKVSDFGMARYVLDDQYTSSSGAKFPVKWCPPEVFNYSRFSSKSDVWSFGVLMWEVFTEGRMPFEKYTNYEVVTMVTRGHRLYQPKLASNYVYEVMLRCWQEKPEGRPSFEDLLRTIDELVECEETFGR
Description: as §1

T3 sequence (P45984 whole entry): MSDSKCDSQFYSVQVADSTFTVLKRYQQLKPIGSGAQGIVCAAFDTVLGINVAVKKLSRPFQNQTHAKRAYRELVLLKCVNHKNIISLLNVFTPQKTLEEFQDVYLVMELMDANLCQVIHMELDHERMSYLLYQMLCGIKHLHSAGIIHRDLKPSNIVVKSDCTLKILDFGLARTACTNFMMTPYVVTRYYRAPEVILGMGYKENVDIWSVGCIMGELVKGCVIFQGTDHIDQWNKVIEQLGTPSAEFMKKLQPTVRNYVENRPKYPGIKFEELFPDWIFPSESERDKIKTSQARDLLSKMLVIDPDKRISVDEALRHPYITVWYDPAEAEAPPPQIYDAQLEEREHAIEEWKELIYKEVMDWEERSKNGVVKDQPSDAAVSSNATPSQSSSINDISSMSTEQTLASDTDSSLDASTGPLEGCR
T7 sequence (Q8IZL9 whole entry): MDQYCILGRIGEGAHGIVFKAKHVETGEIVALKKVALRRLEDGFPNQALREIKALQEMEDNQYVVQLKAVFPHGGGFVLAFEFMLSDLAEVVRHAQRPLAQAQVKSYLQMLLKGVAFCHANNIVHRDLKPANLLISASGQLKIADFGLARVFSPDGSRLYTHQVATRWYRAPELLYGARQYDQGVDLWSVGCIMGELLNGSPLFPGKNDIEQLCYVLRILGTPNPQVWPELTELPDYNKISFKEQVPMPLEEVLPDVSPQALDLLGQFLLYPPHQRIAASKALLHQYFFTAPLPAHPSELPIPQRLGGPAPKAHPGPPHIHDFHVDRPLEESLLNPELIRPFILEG
T7 sequence (P51946 whole entry partner): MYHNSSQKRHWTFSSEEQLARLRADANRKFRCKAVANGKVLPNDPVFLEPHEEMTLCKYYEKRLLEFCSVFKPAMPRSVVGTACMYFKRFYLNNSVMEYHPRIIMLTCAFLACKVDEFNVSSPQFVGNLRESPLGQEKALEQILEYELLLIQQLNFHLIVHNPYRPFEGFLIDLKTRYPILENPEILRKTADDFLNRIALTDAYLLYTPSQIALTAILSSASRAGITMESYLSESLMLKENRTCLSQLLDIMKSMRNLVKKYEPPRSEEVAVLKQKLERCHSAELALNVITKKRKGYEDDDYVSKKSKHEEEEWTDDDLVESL
T1 sequence (P50613 whole entry): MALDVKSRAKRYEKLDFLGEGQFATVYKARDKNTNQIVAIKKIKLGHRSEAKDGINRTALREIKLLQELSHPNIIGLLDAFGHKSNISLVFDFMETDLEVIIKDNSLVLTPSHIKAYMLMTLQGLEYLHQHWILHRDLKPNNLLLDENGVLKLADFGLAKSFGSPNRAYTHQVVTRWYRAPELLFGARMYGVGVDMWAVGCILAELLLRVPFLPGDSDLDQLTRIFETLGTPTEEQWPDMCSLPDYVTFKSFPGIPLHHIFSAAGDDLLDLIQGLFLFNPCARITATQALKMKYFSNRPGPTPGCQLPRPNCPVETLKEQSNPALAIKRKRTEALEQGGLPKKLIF
T1 sequence (P51946 whole entry partner): as the sequence (P51946 whole entry partner) above
T1 sequence (P51948 whole entry partner): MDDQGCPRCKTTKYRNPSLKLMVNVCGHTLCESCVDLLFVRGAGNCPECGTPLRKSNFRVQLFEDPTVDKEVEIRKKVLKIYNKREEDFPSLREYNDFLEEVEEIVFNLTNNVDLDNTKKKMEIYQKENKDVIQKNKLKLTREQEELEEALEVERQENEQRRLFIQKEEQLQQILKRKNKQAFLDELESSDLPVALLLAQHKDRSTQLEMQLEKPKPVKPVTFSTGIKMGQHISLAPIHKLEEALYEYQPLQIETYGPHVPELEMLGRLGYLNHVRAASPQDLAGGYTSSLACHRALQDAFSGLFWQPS
T5 sequence (P48730 whole entry): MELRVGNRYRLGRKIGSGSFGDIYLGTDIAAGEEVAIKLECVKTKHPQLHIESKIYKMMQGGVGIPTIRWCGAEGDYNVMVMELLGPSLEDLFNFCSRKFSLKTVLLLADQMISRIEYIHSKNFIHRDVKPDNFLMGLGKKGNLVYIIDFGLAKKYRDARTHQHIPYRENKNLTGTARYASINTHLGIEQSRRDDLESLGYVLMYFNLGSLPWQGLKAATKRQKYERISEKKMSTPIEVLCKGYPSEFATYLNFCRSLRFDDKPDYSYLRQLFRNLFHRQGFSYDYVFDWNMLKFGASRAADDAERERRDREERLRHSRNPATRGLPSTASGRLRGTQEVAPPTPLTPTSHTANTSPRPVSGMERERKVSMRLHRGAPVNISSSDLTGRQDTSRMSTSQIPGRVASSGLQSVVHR

Structure (SMILES)	Residual activity (CDK7/CycH/MAT1; 1.0E-05 M)	Residual activity (CDK7/CycH/MAT1; 1.0E-06 M)	Residual activity (CDK2/CycD1; 1.0E-05 M)	Residual activity (CDK2/CycD1; 1.0E-06 M)	Residual activity (JNK2; 1.0E-05 M)	Residual activity (JNK2; 1.0E-06 M)	Residual activity (NEK3; 1.0E-05 M)	Residual activity (NEK3; 1.0E-06 M)	Residual activity (CK1delta; 1.0E-05 M)	Residual activity (CK1delta; 1.0E-06 M)	Residual activity (PHKG2; 1.0E-05 M)	Residual activity (PHKG2; 1.0E-06 M)	Residual activity (CDK20/CycH; 1.0E-05 M)	Residual activity (CDK20/CycH; 1.0E-06 M)	Residual activity (SNARK; 1.0E-05 M)	Residual activity (SNARK; 1.0E-06 M)	Residual activity (TEC; 1.0E-05 M)	Residual activity (TEC; 1.0E-06 M)	inhibition at 1 µM (CK1delta; 1 µM, read-out: inhibition of CK1-δ) [%]	inhibition at 10 µM (CK1delta; 10 µM, read-out: inhibition of CK1-δ) [%]
O=C(Cc1ccccc1)Nc1ccc(F)c(Nc2ccc3c(c2)CCCCC3=O)c1 [Compound 100]	83 % of control	94 % of control	119 % of control	102 % of control	79 % of control	87 % of control	92 % of control	104 % of control	106 % of control	110 % of control	93 % of control	96 % of control	98 % of control	103 % of control	92 % of control	107 % of control	69 % of control	88 % of control	–	–
O=C(Nc1ccc(F)c(Nc2ccc3c(c2)CCCCC3=O)c1)c1cccc(F)c1 [Compound 109]	92 % of control	89 % of control	87 % of control	106 % of control	97 % of control	88 % of control	97 % of control	96 % of control	15 % of control	23 % of control	95 % of control	102 % of control	121 % of control	110 % of control	98 % of control	105 % of control	80 % of control	94 % of control	≥ 50	≥ 50
